# Laboratory results: ChEMBL document CHEMBL1857833, “Screening and optimization of specific chemical series against human African Trypanosomiasis (HAT)”
# Key:
# [1] = DNDI: Cytotoxicity against L929 mouse fibroblasts, 72 hour.; type: toxicity, cell-based; settings: mouse, L929 mouse fibroblasts
# [2] = test system: Trypanosoma brucei; assay: DNDI: Inhibition of Human African Trypanosomiasis, SBRI 427, in vitro; type: functional, organism-based
# [3] = Trypanosoma brucei, SBRI 427, read-out: IC50
SMILES,"IC50 [2, 3] [µg/mL]",IC50 [2] [µg/mL],IC50 at 72 h [1] [µg/mL]
O/N=C(\NC1CCCCC1)c1cccnc1Oc1cc(Cl)ccc1Cl,0.57,,> 10
CCCCCc1ccc(-c2nc(CNC(C)CCCCC)co2)cc1 (centres undefined),1.09,,1.01
COc1ccc(-c2nc(CNCCCN(C)C)c(C)o2)cc1,3.13,,> 10
CCCCCCCCCCOc1ccc(-c2nc(CNC(C)CCCCC)co2)cc1 (centres undefined),1.35,,2.9
CCC(CC)Oc1ccc(-c2nc(CNCCCN(C)C)co2)cc1,> 5,,> 10
CCCCc1ccc(-c2nc(CNC3CCCC3)co2)cc1,0.83,,2.52
CCCCc1ccc(-c2nc(CNC(CC)CC)co2)cc1,0.63,,1.83
CCCCc1ccc(-c2nc(C)c(C)o2)cc1,> 5,,5.21
CCCCCC(C)NCc1coc(-c2ccc(CC)cc2)n1 (centres undefined),1,,2.61
CCCCc1ccc(-c2nc(CC)co2)cc1,> 5,,6.2
CCCCc1ccc(-c2nc(CNCc3ccc(Cl)cc3)co2)cc1,> 5,,7.38
N#Cc1nc(-c2ccccc2)oc1N,> 5,,> 10
CCCCc1ccc(-c2nc(CNC3CC3)co2)cc1,3.05,,7.55
CN(C)CCCNCc1coc(-c2ccc(OC3CCCC3)cc2)n1,> 5,,> 10
CC(C)(C)c1cc(=O)n2nc(-c3ccc(F)cc3)cc2[nH]1,> 5,,> 10
CCCCCCC/C(O)=C1/C(=O)CN(C)C1=O,> 5,,> 10
Brc1nn2ccnc2s1,> 5,,> 10
CCCCCC(C)NCc1coc(-c2ccc(OCCCC)c(OC)c2)n1 (centres undefined),0.38,,1.48
CCCCCC(C)NCc1coc(-c2ccc3c(c2)OCO3)n1 (centres undefined),3.61,,10
CCCCc1ccc(-c2nc(CNCCc3cnc[nH]3)co2)cc1,0.37,,2.43
C(=N\Oc1ccccc1)/c1ccccc1-c1ccccc1,> 5,,> 10
CCCCc1ccc(-c2nc(C)c(C(C)=O)o2)cc1,> 5,,> 10
COc1ccc(/C=N/OCc2c(F)c(F)c(F)c(F)c2F)cc1,> 5,,> 10
CCCCc1ccc(-c2nc(C(=O)OCC)co2)cc1,> 5,,> 10
CCCCCC(C)NCc1coc(-c2cc(Cl)ccc2O)n1 (centres undefined),2.46,,2.33
Cc1cc(NC2CCN(C(=O)OC(C)(C)C)C2)n2nc(-c3cccc(F)c3)cc2n1 (centres undefined),> 5,,> 10
CCCCc1ccc(-c2nc(CNCc3ccncc3)co2)cc1,> 5,,> 10
CCCCCC(C)NCc1coc(-c2ccc(Cl)cc2Cl)n1 (centres undefined),0.9,,3.47

# The next lines start with results.
"IC50 [2, 3] [µg/mL]",IC50 [2] [µg/mL],SMILES,IC50 at 72 h [1] [µg/mL]
0.41,,CCCCCC(C)NCc1coc(-c2ccc(OCc3ccc(Cl)c(Cl)c3)cc2)n1 (centres undefined),1.9
> 5,,CC(C)(C)OC(=O)N1CCN(c2cc(-c3ccccc3)nc3cc(-c4ccc(F)cc4)nn23)CC1,> 10
> 5,,COc1ccc(-c2cc3[nH]c(-c4ccccc4)cc(=O)n3n2)cc1,> 10
4.22,,Cc1ccc(CNC(CC(C)C)c2nc(-c3ccccc3)c(N3CCOCC3)o2)cc1 (centres undefined),> 10
3.65,,Fc1ccc(-c2cc3nc(-c4ccccc4)cc(NCCCN4CCCC4)n3n2)cc1,6.92
> 5,,Cc1cc(N2CCN(C(=O)OC(C)(C)C)CC2)n2nc(-c3cccc(F)c3)cc2n1,> 10
> 5,,CCC(C)C(NCC(C)C)c1nc(Cc2ccccc2)c(N2CCCCC2)o1 (centres undefined),> 10
> 5,,CCCCc1ccc(-c2nc(-c3ccccc3)c(-c3ccccc3)o2)cc1,> 10
> 5,,Cc1cc(NCCN2CCOCC2)n2nc(-c3cccc(F)c3)cc2n1,> 10
> 5,,Cc1ccc(CNC(c2nc(Cc3ccccc3)c(N3CCOCC3)o2)c2ccccc2C)cc1 (centres undefined),> 10
> 5,,Fc1ccc(-c2cc3nc(-c4ccccc4)cc(NCCN4CCOCC4)n3n2)cc1,> 10
1.6,0.89,CCCCc1ccc(-c2nc(CNCCCN3CCCC3)co2)cc1,6.03
> 5,,c1ccc(Cc2nc(C(NCc3ccco3)C3CC3)oc2N2CCOCC2)cc1 (centres undefined),> 10
> 5,,Cc1ccc(CNC(CC(C)C)c2nc(C(C)C)c(N3CCOCC3)o2)cc1 (centres undefined),> 10
> 5,,COc1ccccc1C(=O)c1nc(-c2ccccc2)oc1N,> 10
> 5,,CCOCCCNC(c1nc(C(C)C)c(N2CCOCC2)o1)C1CC1 (centres undefined),> 10
> 5,,CCC(C)C(NCc1cccc(C)c1)c1nc(-c2ccccc2)c(N2CCCCC2)o1 (centres undefined),> 10
> 5,,Fc1ccc(-c2cc3nc(-c4ccccc4)cc(NCCCN4CCOCC4)n3n2)cc1,> 10

"IC50 [2, 3] [µg/mL]",IC50 [2] [µg/mL],SMILES,IC50 at 72 h [1] [µg/mL]
1.05,,CCN(CC)CCCNc1cc(-c2ccccc2)nc2cc(-c3cccc(F)c3)nn12,2.51
> 5,,Cc1cc(NCCCN2CCCC2=O)n2nc(-c3cccc(F)c3)cc2n1,> 10
0.554,,NCCCNc1cc(-c2ccccc2)nc2cc(-c3ccc(F)cc3)nn12,0.76
4.04,,Fc1ccc(-c2cc3nc(-c4ccccc4)cc(NCCCn4ccnc4)n3n2)cc1,7.66
> 5,,CCC(C)C(NCc1ccc(C)cc1)c1nc(Cc2ccccc2)c(N2CCCCC2)o1 (centres undefined),> 10
2.71,,CCCCCC(C)NCc1nc(-c2ccccc2F)oc1C (centres undefined),8.59
> 5,,O=c1cc(-c2ccccc2)[nH]c2cc(-c3ccc(F)cc3)nn12,10
2.07,,CN(C)CCNc1cc(-c2ccccc2)nc2cc(-c3cccc(F)c3)nn12,1.78
0.535,,NCCCNc1cc(-c2ccccc2)nc2cc(-c3cccc(F)c3)nn12,1.57
3.82,,Fc1cccc(-c2cc3nc(-c4ccccc4)cc(NCCN4CCCCC4)n3n2)c1,9.91
2.22,,Fc1cccc(-c2cc3nc(-c4ccccc4)cc(NCCN4CCCC4)n3n2)c1,1.54
0.38,,CCCCCC(C)NCc1coc(-c2ccc(OCc3ccc(F)cc3)cc2)n1 (centres undefined),0.95
0.16,,CCCCc1ccc(-c2nc(CNC3CCN(Cc4ccccc4)CC3)co2)cc1,0.96
> 5,,Clc1nc(Oc2cccc3ccccc23)c2sccc2n1,2.52
1.02,,CCCCCC(C)NCc1coc(-c2cccc(OCCCC)c2)n1 (centres undefined),1.7
> 5,,C[N+]1(C)CCN(c2cc(-c3ccccc3)nc3cc(-c4ccc(F)cc4)nn23)CC1,> 10
> 5,,O=c1cc(-c2ccccc2)[nH]c2cc(-c3cccc(F)c3)nn12,4.88
> 5,,CCOCCCNC(CC(C)C)c1nc(-c2ccccc2)c(N2CCOCC2)o1 (centres undefined),> 10
